Reference: PMC8703531, “Structure of ABCB1/P-Glycoprotein in the Presence of the CFTR Potentiator Ivacaftor” (Membranes, 2021)

Biological target: T1, murine P-glycoprotein (P-gp, ABCB1; abcb1a, mdr3) (Mus musculus, UniProt P21447)
T1 construct: opti-mdr3 gene product expressed in P. pastoris, purified in DDM
Test: thermostability shift of purified protein (static light scattering, tryptophan fluorescence, CPM dye) giving KD; cryo-EM with additional density (map a)
Format: binding

T1 sequence (P21447 whole entry): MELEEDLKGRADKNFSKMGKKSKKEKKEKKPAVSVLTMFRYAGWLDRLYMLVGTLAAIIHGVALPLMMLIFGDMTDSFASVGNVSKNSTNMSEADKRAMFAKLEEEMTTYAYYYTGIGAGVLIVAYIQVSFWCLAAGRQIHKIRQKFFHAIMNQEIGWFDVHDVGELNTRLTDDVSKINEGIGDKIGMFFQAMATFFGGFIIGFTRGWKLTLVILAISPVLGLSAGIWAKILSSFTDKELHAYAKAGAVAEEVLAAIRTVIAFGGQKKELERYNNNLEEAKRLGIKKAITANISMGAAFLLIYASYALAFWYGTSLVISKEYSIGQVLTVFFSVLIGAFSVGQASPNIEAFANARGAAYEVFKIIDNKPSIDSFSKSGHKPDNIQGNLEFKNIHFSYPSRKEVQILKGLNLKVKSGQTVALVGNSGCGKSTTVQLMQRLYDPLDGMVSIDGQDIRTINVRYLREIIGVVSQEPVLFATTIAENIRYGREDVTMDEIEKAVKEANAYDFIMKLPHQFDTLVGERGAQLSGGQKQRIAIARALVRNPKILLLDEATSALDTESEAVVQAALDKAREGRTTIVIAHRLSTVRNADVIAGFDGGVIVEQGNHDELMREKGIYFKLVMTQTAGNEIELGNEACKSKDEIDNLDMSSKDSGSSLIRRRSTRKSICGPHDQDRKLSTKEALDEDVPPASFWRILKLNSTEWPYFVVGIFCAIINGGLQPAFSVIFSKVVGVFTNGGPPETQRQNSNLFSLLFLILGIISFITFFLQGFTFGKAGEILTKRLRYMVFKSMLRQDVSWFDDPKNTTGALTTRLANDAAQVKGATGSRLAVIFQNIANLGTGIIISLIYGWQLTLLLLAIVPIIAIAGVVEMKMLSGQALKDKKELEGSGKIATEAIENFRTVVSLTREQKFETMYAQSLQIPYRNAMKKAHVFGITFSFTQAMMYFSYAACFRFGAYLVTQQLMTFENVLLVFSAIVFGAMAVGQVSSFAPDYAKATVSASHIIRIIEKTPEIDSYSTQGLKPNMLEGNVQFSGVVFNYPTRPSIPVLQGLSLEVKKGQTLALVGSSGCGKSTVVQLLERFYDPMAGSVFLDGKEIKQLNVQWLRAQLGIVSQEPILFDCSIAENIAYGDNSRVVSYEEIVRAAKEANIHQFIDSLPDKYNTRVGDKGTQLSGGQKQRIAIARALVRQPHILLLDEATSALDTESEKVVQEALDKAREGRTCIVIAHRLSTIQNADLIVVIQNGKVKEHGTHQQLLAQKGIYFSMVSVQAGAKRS

Kd: 200 nM
SMILES: CC(C)(C)c1cc(C(C)(C)C)c(NC(=O)c2c[nH]c3ccccc3c2=O)cc1O [ivacaftor]
